Data as given in patent US11512107B2, “Methods for assembly of tetracyclic compounds by stereoselective C9-C10 bond formation” (Trustees of Dartmouth College, priority 2018, dated 2022).

Key:
[1] = system: ERβ; test: Alkaline phosphatase (ALP) activity in DU-145 prostate cancer cells expressing endogenous ERβ; type: cell-based, human; conditions: DU-145 cells, 24 hours, 5 μM
Description: FIG. 2 is a bar graph showing alkaline phosphatase activity in human DU-145 prostate cancer cells (17β-estradiol, Compound 100, and Compound 101 were evaluated at 5 μM).
The DU-145 prostate cancer cell line only expresses ERβ and can be used as a model to examine the activation of ERβ in the absence of any potential confounding signal driven by ERα. Alkaline phosphatase (ALP) expression is induced in an ER-dependent manner and has been used to characterize the activity of synthetic ER agonists and antagonists.
In order to examine the ability of Compound 100 and Compound 101 to activate ERβ in the context of a cell line expressing endogenous ERβ, DU-145 cells were treated for 24 hours with either 17β-estradiol, Compound 100, or Compound 101 and ALP activity derived from the cells was examined.

[2] = biological target: ERβ (Homo sapiens, UniProt Q92731); test: ERβ agonist assay (functional activity at estrogen receptors, FIG. 1); type: cell-based; conditions: for selectivity over ERα: ERβ over ERα, relative to 17β-estradiol; for EC50: read-out: EC50 ERβ agonism
Description: FIG. 1 is a set of line graphs showing the results of ERβ and ERα agonist assays for Compounds 100 and 101.
Compounds 100 and 101 were evaluated for their functional activity at estrogen receptors (both ERα and ERβ). 17β-estradiol was used as a control, as it is appreciated to be a potent agonist of both ERα and ERβ.

[3] = system: U251 and U87 cells; test: Growth inhibition and viable cell counts of glioblastoma-derived cell lines; type: cell-based, human; conditions: U251 and U87, after 24 hours, versus TMZ
Description: FIG. 3A-3B are line graphs depicting (A) dose dependent growth inhibition of U251 and U87 cells treated with Compound 100, Compound 101, TMZ, and vehicle control DMSO (n=4) and (B) viable cell counts of U251 and U87 cells treated with Compound 100, Compound 101, TMZ, and vehicle control DMSO determined every 24 hours for 96 hours (n=4)
To determine the biological effect of Compound 100 and Compound 101, human glioblastoma-derived cell lines U251 and U87 were treated with varying concentrations of Compound 100, Compound 101, temazolomide (TMZ; a standard of care chemotherapeutic agent), or vehicle-toxicity control, dimethylsulfoxide (DMSO) used at final volumes that were identical to those used to attain all concentrations tested of Compound 100 and Compound 101.

[4] = system: U251 and U87 cells; test: Apoptosis by Annexin V / 7-AAD FACS analysis; type: cell-based, human; conditions: U251 and U87, 24 hours
Description: FIG. 3C is a flow cytometric analysis of U251 and U87 co-stained with Annexin V-FITC/7-AAD after treatment with Compound 100, Compound 101, TMZ, and vehicle control DMSO (n=4).
In order to elucidate the mechanism of this cell death, glioblastoma cells treated for 24 hours with Compound 100, Compound 101, TMZ, or DMSO control were analyzed for early and late apoptosis markers (Annexin V and 7-Aminoactinomycin D) by FACS analyses. […] Additionally, over a period of five days, morphological changes in U251 and U87 cells treated with Compound 100 and Compound 101 were tracked using the Incucyte live cell imaging system.

[5] = system: human neural stem cells as well as human astrocytes; test: Cell viability of non-tumour neural cells; type: cell-based; conditions: at the equivalent concentration
[6] = Initial in vivo toxicity studies
From the text: In comparison to 17β-estradiol, Compound 100 and Compound 101 have a unique profile for selective agonism of ERβ (FIG. 1).

ERβ (Homo sapiens, UniProt Q92731), sequence (Q92731 whole entry): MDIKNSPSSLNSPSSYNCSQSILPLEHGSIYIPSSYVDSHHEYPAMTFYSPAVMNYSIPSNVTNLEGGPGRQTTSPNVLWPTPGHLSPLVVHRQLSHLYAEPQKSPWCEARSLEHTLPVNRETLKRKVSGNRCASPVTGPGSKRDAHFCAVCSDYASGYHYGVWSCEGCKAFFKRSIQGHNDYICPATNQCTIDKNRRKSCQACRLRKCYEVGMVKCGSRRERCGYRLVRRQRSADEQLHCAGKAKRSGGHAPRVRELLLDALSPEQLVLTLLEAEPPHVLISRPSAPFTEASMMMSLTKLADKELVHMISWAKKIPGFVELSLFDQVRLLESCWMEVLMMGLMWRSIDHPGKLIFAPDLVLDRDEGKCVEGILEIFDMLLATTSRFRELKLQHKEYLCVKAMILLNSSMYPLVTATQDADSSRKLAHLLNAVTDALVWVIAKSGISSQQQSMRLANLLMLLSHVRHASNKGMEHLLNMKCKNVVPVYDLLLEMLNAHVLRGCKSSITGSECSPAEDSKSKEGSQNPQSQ

SMILES: C[C@]12CC[C@@H]3c4ccc(O)cc4CC[C@H]3[C@@H]1CC[C@@H]2O [17β-estradiol]
- induction of ALP activity [1]: effective in inducing ALP activity

SMILES: C[C@]12CC[C@@]3(C)C(=C1C[C@@H](O)C2)CCc1cc(O)ccc13 [Compound 100, (9S,13R,16S)-9,13-dimethyl-7,9,11,12,13,15,16,17-octahydro-6H-cyclopenta[a]phenanthrene-3,16-diol]
- selectivity over ERα [2]: > 260 fold
- EC50 [2]: 0.05 nM
- inhibition of glioma cell growth (IC50): fold lower concentration compared to TMZ [3]: 50 fold
- induction of apoptosis, fold higher than TMZ or DMSO controls [4]: 7 fold
- cell viability of human neural stem cells and human astrocytes [5]: not affected
- in vivo toxicity [6]: neither compound is toxic

SMILES: C[C@@]12CC[C@]3(C)C(=C1C[C@H](O)C2)CCc1cc(O)ccc13 [Compound 101, (9R,13S,16R)-9,13-dimethyl-7,9,11,12,13,15,16,17-octahydro-6H-cyclopenta[a]phenanthrene-3,16-diol]
- selectivity over ERα [2]: ~6 fold
- EC50 [2]: 1.9 nM
- inhibition of glioma cell growth (IC50): fold lower concentration compared to TMZ [3]: 50 fold
- induction of apoptosis, fold higher than TMZ or DMSO controls [4]: 7 fold
- cell viability of human neural stem cells and human astrocytes [5]: not affected
- in vivo toxicity [6]: neither compound is toxic
